From patent US5164185A, “Pharmaceutical and cosmetic depigmentation compositions with a caffeic acid base” (priority 1989, dated 1992)

Tests used:
melanin biosynthesis = experiment: depigmenting action (studies on substances used singly or in combination); details: in words
From the text: In these latter, at least one of the active ingredients may be liposomes.

[1] = system: fungus-derived tyrosinase; experiment: in vitro tyrosinase inhibition, dopachrome formation by visible spectrophotometry (475 nm); assay type: biochemical; details: in words
From the text: The efficacy of the various combination according to the invention have been studied in vitro by measuring out, using visible spectrophotometry (475 nm), the quantity of dopachrome formed during the chain of tyrosine-oxidation reactions. These oxidation reactions are catalyzed in vitro using fungus-derived tyrosinase in the presence of a co-substrate (for example, a small quantity of L-dopa) in order to trigger the hydroxylation reaction of L-tyrosine into L-dopa, this latter being then oxidized by catalysis into dopaquinone, then into dopachrome, an intermediate product formed before the non-enzymatic oxidation reactions leading to melanin formation.
Accordingly, the concentration of dopachrome formed over time is monitored in the presence of various inhibitors of tyrosinasic activity.
The concentrations of inhibitors are expressed as molar percents in relation to the concentration of tyrosine present in the reactive medium.
The inhibitory effect may be expressed, in relation to the control curve (absence of inhibitor) by lowering of the quantity of dopachrome formed and/or by a slowing of dopachrome-formation kinetics. […]

melanocytes = details: in words, prior art; cited from earlier work

## O=C(O)/C=C/c1ccc(O)c(O)c1 [caffeic acid]
Melanin biosynthesis
  depigmenting action: especially interesting depigmenting action
[1]
  inhibition of tyrosinasic activity leading to limited formation of dopachrome: inhibition of tyrosinasic activity

## Oc1ccc(O)cc1 [hydroquinone]
melanocytes
  irritation and cytotoxicity for melanocytes: especially irritating and cytotoxic for melanocytes
